How the values were obtained:
[1] = Cytotoxicity MTS assay in HepG2 cells; type: cell-based; details: human
Experimental: (§1) Assays were performed in human peripheral blood mononuclear (PBM) and human liver (HepG2) cells via MTS assay using the CellTiter 96® Non-Radioactive Cell Proliferation (Promega) kit as previously described^3. Cytotoxicity was expressed as the concentration of test compounds that inhibited cell proliferation by 50% (IC50) and calculated using the Chou and Talalay method.

HBV [2] = test: HBV assay in HepAD38 cells, real-time PCR for HBV DNA in supernatant; type: cell-based; details: Hepatitis B virus, 168 h, 7 days
Experimental: In HepAD38 cells were seeded at 50,000 cells/well in collagen-coated 96-well plates. Test compounds or 2′,3′-didéoxy-3′-thiacytidin (3TC) (control) were added to HepAD38 cells to a final concentration of 10 μM.
Real-Time PCR for HBV DNA. The experiment lasted 7 days. On day 7, total DNA was purified from the supernatant using a commercially available kit (DNeasy 96 Blood & Tissue kit, Qiagen). The HBV DNA was amplified in a real-time PCR assay using a LightCycler 480 (Roche) as described elsewhere. All samples were tested in duplicate in two to three independent experiments. Analysis: The concentration of compound that inhibited HBV DNA replication by 50% (EC50) was determined by linear regression.

[3] = system: SARS-CoV-2 strain BavPat1; test: SARS-CoV-2 assay in Vero E6 cells (CellTiter-Blue); details: 10 μM
HBV [4] = test: HBV assay in Huh7 cells transfected with pCI_HBVpg1820, intracapsid viral DNA by real-time PCR; type: cell-based, hepatitis B virus (HBV); details: for inhibition at 10 µM: Hepatitis B virus, Huh-7, 96 h
Experimental: In Huh7 cells: antiviral activity against HBV in cell culture was measured as previously described. Briefly, Huh7 cells were transfected with plasmid pCI_HBVpg1820 containing 1.1 unit of HBV genome under the control of a human cytomegalovirus (CMV) promoter. The drugs were stored at 1000× in DMSO at −20 °C. For each experiment, the drugs were diluted in DMEM cell culture medium (Thermo Fisher Scientific, Artenay, France) to a final concentration of 10 μM. All drugs were tested in triplicate in two independent experiments. After 4 days of culture, intracapsid viral DNA was quantified by duplex real-time PCR, using primers described elsewhere, on a LightCycler 480 II apparatus (Roche Diagnostics France, Meylan, France) using TaqMan Universal PCR Mastermix II without UNG (Thermo Fisher Scientific, Artenay, France). Cells were quantified using primers by real-time PCR, using primers HPRT1_F (5′-[…]) and HPRT1_R (5′-[…]), on a LightCycler 480 II apparatus (Roche) using a LightCycler® 480 SYBR Green I Master (Roche Diagnostics France, Meylan, France). Cycling reactions were performed with the following parameters: 5 min at 95 °C, followed by 45 cycles of 10 s at 95 °C, 15 s at 60 °C, 10 s at 72 °C. The inhibition of HBV replication (%) and cell culture viability (%) were quantified using the following formulas. Inhibition of HBV replication (%)=1− HBV DNA copy numberDrug/HBV DNA copy numberCell culture medium Cell viability (%)= HPRT1 DNA copy numberDrug/HPRT1 DNA copy numberCell culture medium

in vitro = type: cell-based; details: human; PBM cells; read-out: MTS Cytotoxicity (IC50, μM) PBM
Experimental: as §1

[5] = Cell culture viability in the Huh7 HBV assay (HPRT1 DNA copy number); details: human
HIV-1 LAI = test: HIV assay in human PBM cells infected with HIV-1 LAI, RT quantification; type: cell-based; details: for inhibition at 10 µM: Human immunodeficiency virus 1, PBMC, PBM cells, HIV-1 LAI
Experimental: The assay was performed as described by Schinazi et al. with minor modifications. […] The supernatants were harvested, and the HIV-1 RT was quantified.

[6] = 10 μM, Huh7 cells, 4 days, read-out: HBV % Inhibition Huh7
[7] = read-out: HBV % Inhibition Huh7, 10 μM, Huh7 cells, 4 days

SMILES	IC50 [1] [µM]	inhibition at 10 µM (HBV [2]) [%]	SARS-CoV-2 % Inhibition Vero E6 [3] [%]	inhibition at 10 µM (HBV [4]; [6]) [%]	IC50 (in vitro) [µM]	viability at 4 days, 10 µM [5] [%]	inhibition at 10 µM (HIV-1 LAI) [%]	EC50 (HIV-1 LAI; positive control, data not shown, read-out: EC50 anti-HIV) [µM]	HBV % Inhibition Huh7 (HBV [4]; 10 μM, Huh7 cells, 4 days) [%]	inhibition at 10 µM (HBV [4]; [7]) [%]	anti-HBV activity in words (HBV [4]; compared to entecavir (Huh7) and lamivudine (HepAd38))
C/C(=C\CP(=O)(OCOC(=O)OC(C)C)OCOC(=O)OC(C)C)Cn1cc(C2CC2)nn1 [Compound 11f, [[(E)-4-(4-Cyclopropyltriazol-1-yl)-3-methyl-but-2-enyl]-(isopropoxycarbonyloxymethoxy)phosphoryl]oxymethyl isopropyl carbonate]	> 100	36.3	<1	< 1	25.5	100	30.7	–	–	–	–
CCCCCCCCCCCCCCCCOCCCOP(=O)(C/C=C(\C)Cn1cc(-c2ccc(CCC)cc2)nn1)OCOC(=O)OC(C)C (centres unmarked) [Compound 15a, [3-Hexadecyloxypropoxy-[(E)-3-methyl-4-[4-(4-propylphenyl]triazol-1-yl]but-2-enyl]phosphoryl]oxymethyl isopropyl carbonate]	–	–	<1	< 1	–	95	–	–	–	–	–
Cc1cn([C@H]2C[C@H](N=[N+]=[N-])[C@@H](CO)O2)c(=O)[nH]c1=O [AZT, reference compound]	–	–	–	–	–	–	–	0.008	–	–	–
CCCCCCCCCCCCCCCCOCCCOP(=O)(C/C=C(\C)Cn1cc(-c2ccc(CCCCC)cc2)nn1)OCOC(=O)OC(C)C (centres unmarked) [Compound 15c, [3-Hexadecyloxypropoxy-[(E)-3-methyl-4-[4-(4-pentylphenyl)triazol-1-yl]but-2-enyl]phosphoryl]oxymethyl isopropyl carbonate]	> 100	28.8	<1	14	50.5	47	28.2	–	–	–	–
CCCc1ccc(-c2cn(C/C(C)=C/CP(=O)(OCOC(=O)OC(C)C)OCOC(=O)OC(C)C)nn2)cc1 [Compound 11a, [[(E)-4-[4-(4-Propylphenyl)triazol-1-yl]-3-methyl-but-2-enyl]-(isopropoxycarbonyloxymethoxy)phosphoryl]oxymethyl isopropyl carbonate]	18.3	19.6	<1	–	50.2	96	< 1	–	51	> 40	–
C/C(=C\CP(=O)(OCOC(=O)OC(C)C)OCOC(=O)OC(C)C)Cn1cc(C(=O)O)nn1 [Compound 11m, 1-[(E)-4-[Bis(isopropoxycarbonyloxymethoxy)phosphoryl]-2-methyl-but-2-enyl]triazole-4-carboxylic acid]	> 100	41.3	<1	12	–	57	12.9	–	–	–	–
CNC(=O)c1cn(C/C(C)=C/CP(=O)(OCOC(=O)OC(C)C)OCOC(=O)OC(C)C)nn1 [Compound 11p, [[(E)-4-(4-Methylcarbamoyltriazol-1-yl)-3-methyl-but-2-enyl]-(isopropoxycarbonyloxymethoxy)phosphoryl]oxymethyl isopropyl carbonate]	> 100	< 1	<1	14	78.3	54	36.4	–	–	–	–
CCCCc1ccc(-c2cn(C/C(C)=C/CP(=O)(OCOC(=O)OC(C)C)OCOC(=O)OC(C)C)nn2)cc1 [Compound 11b, [[(E)-4-[4-(4-Butylphenyl)triazol-1-yl]-3-methyl-but-2-enyl]-(isopropoxycarbonyloxymethoxy)phosphoryl]oxymethyl isopropyl carbonate]	16.2	14.4	<1	25	19.4	88	< 1	–	–	–	–
C/C(=C\CP(=O)(OCOC(=O)OC(C)C)OCOC(=O)OC(C)C)Cn1cc(-c2ccc([N+](=O)[O-])cc2)nn1 [Compound 11l, [[(E)-4-(4-Nitrophenyltriazol-1-yl)-3-methyl-but-2-enyl]-(isopropoxycarbonyloxymethoxy)phosphoryl]oxymethyl isopropyl carbonate]	85.3	42.6	10	–	23.5	100	38.8	–	40	> 40	good activity
CCCCCCCCCCCCCCCCOCCCOP(=O)(C/C=C(\C)Cn1cc(-c2ccc([N+](=O)[O-])cc2)nn1)OCOC(=O)OC(C)C (centres unmarked) [Compound 15l, [3-Hexadecyloxypropoxy-[(E)-3-methyl-4-[4-(nitrophenyl)triazol-1-yl]but-2-enyl]phosphoryl]oxymethyl isopropyl carbonate]	–	–	<1	12	–	100	–	–	–	–	–
CCNC(=O)c1cn(C/C(C)=C/CP(=O)(OCOC(=O)OC(C)C)OCOC(=O)OC(C)C)nn1 [Compound 11q, [[(E)-4-[4-(Ethylcarbamoyl)triazol-1-yl]-3-methyl-but-2-enyl]-(isopropoxycarbonyloxymethoxy)phosphoryl]oxymethyl isopropyl carbonate]	> 100	< 1	<1	< 1	80.6	90	31.2	–	–	–	–
CCCCCc1ccc(-c2cn(C/C(C)=C/CP(=O)(OCOC(=O)OC(C)C)OCOC(=O)OC(C)C)nn2)cc1 [Compound 11c, [[(E)-4-[4-(4-Pentylphenyl)triazol-1-yl]-3-methyl-but-2-enyl]-(isopropoxycarbonyloxymethoxy)phosphoryl]oxymethyl isopropyl carbonate]	51.8	< 1	<1	–	47.8	89	44.4	–	42	> 40	–
C[C@@H]1C[C@@H]([C@H](O)CC2CC(=O)NC(=O)C2)C(=O)[C@@H](C)C1 [cycloheximide, reference compound]	1.5	–	–	–	1	–	–	–	–	–	–
COC(=O)c1cn(C/C(C)=C/CP(=O)(OCOC(=O)OC(C)C)OCOC(=O)OC(C)C)nn1 [Compound 11n, Methyl-1-[(E)-4-[bis(isopropoxycarbonyloxymethoxy)phosphoryl]-2-methyl-but-2-enyl]triazole-4-carboxylate]	> 100	3.9	<1	28	40.9	60	< 1	–	–	–	–
CCC(CC)COC(=O)[C@H](C)N[P@](=O)(OC[C@H]1O[C@@](C#N)(c2ccc3c(N)ncnn23)[C@H](O)[C@@H]1O)Oc1ccccc1 [Remdesivir, reference compound]	–	–	100	–	–	–	–	–	–	–	–
CCCCCCCCCCCCCCCCOCCCOP(=O)(C/C=C(\C)Cn1cc(-c2ccc(CCCCCCC)cc2)nn1)OCOC(=O)OC(C)C (centres unmarked) [Compound 15e, [3-Hexadecyloxypropoxy-[(E)-3-methyl-4-[4-(heptylphenyl)triazol-1-yl]but-2-enyl]phosphoryl]oxymethyl isopropyl carbonate]	–	–	<1	8	–	100	–	–	–	–	–
